For two compounds, IC50 results are on record in US5169845A, “Piperazine derivatives” (John Wyeth & Brother Limited, priority 1990, dated 1992).

One assay addresses T1, 5-HT1A receptor (Rattus norvegicus, UniProt P19327).
T1 construct: rat hippocampal membrane homogenate; from tissue; host or cells: rat hippocampal membrane homogenate
T1 sequence (P19327 1-422): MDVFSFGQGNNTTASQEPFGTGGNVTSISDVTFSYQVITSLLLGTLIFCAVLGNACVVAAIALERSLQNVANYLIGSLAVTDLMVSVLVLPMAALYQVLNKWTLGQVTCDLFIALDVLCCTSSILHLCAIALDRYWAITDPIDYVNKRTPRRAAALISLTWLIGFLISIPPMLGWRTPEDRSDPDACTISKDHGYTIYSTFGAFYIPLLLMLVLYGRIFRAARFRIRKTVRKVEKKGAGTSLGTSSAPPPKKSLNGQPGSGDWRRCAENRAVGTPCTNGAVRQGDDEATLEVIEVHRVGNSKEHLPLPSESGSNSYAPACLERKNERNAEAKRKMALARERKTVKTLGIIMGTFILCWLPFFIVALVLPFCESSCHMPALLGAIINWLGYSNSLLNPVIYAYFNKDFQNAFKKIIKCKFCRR
In words: 5-HT1A receptor binding activity in rat hippocampal membrane homogenate. As to the method: The compounds of the invention were tested for 5-HT1A receptor binding activity in rat hippocampal membrane homogenate by the method of B S Alexander and M D Wood, J Pharm Pharmacol, 1988, 40, 888-891.

A further assay deals with α1. In words: affinity for the α1 site (procedure of A L Marrow et al). The class given is binding.

Usually IC50 stands for the midpoint of a concentration-inhibition curve. A higher IC50 goes with lower potency.

On to `COc1ccccc1N1CCN(CC(C(=O)NC(C)(C)C)c2ccccn2)CC1` (stereo not shown) [Example 1, N-tert-Butyl-3-[4-(2-methoxyphenyl)piperazin-1-yl]-2-(2-pyridyl)propanamide], for which the IC50 amounted to 38 nM on 5-HT1A receptor and 2900 nM with α1.
The matching figures for `COc1ccccc1N1CCN(CCC(C(=O)N2CCCCCC2)c2cccs2)CC1` (stereo not shown) [Example 2, 2,3,4,5,6,7-Hexahydro-1-[2-(2-thiophenyl)-4-(1-(4-(2-methoxyphenyl)piperazinyl))]butyryl-1H-azepine]: 0.8 nM and 147 nM.
